Like-named read-outs stand apart in the source and are kept apart here.
How the values were obtained:
[1] = biological target: Ba/F3 cells containing Ros1 with G2032R mutation (Homo sapiens, UniProt P08922, G2032R, cells depend on it, form not given); assay: Ba/F3-Ros1 cell proliferation assay, G2032R crizotinib-resistance mutant; type: cell-based, murine; conditions: without IL-3
Protocol: Ba/F3-Ros1 Cell Proliferation Assay
This assay was carried out with Ba/F3 cells containing three different versions of Ros1: the wild-type protein, protein with a mutation at the gatekeeper residue (L2026M), and protein with a mutation identified in a tumor from a patient that became resistant to crizotinib (Xalkori®) treatment (G2032R). Compounds were solubilized in 100% DMSO (dimethyl sulfoxide) and sprayed into polystyrene, tissue culture treated 384-well plates. A 50 μl volume of cell culture medium (phenol red free RPMI-1640, 10% FBS (fetal bovine serum), 2 mM L-Glutamine) containing 20000 Ba/F3-Ros1 cells was added to each well and the plates were placed in an incubator at 37° C. and 5% CO2. After 24 hours, 10 μl of Alamar Blue solution (0.5 mM K3Fe(CN)6, 0.5 mM K4Fe(CN)6, 0.15 mM Resazurin and 100 mM Phosphate Buffer) was added to the wells, incubated for 4 hours at 37° C. and 5% CO2 before RFU's (Relative Fluorescence Units) (ex. 540 nm., em. 590 nm.) were measured in a fluorescence plate reader.

[2] = system: HCC78 non-small cell lung cancer cells; assay: HCC78 cell proliferation assay; type: cell-based; conditions: Homo sapiens, HCC78, 96 h, read-out: HCC-78 PROL pEC50 (converted)
Method in brief: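 HCC78 NSCLC cells (~1000/well) in RPMI-1640 with 10% FBS were treated 24 h after seeding and exposed to compound for 4 days at 37 °C. Viability was read by MTT, with absorbance at 538 nm after DMSO/glycine solubilization.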

[3] = biological target: T1, Ba/F3 cells containing Ros1 wild-type protein (Homo sapiens, UniProt P08922, cells depend on it, form not given); assay: Ba/F3-Ros1 cell proliferation assay, wild-type Ros1; type: cell-based, murine; conditions: without IL-3
T1 construct: The background only speaks of 'a number of different unrelated proteins' and names SLC34A2-ROS1 for HCC78 cells
Method in brief: (§1)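 Compounds dispensed from 100% DMSO; Ba/F3 cells carrying one of three Ros1 forms added at 20000/well in RPMI-1640 with 10% FBS. Plates kept 24 h at 37 °C under 5% CO2. Alamar Blue added, 4 h further incubation, fluorescence measured at 540/590 nm.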

[4] = system: Ros pY2274 in HCC78 cells; assay: pROS1 immunofluorescence assay in HCC78 cells; type: cell-based; conditions: Homo sapiens, read-out: HCC78-pRos1 pIC50 (converted)
Method in brief: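 HCC78 NSCLC cells treated with compound for 4 h at 37 °C, then fixed and immunostained for ROS1 pY2274 (Alexa Fluor 680, read at 700 nm). Total ROS1 stained in parallel (IRDye800cw, 800 nm) and used to normalize phospho signal.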

[5] = biological target: Ba/F3 cells containing Ros1 with a mutation at the gatekeeper residue (L2026M) (Homo sapiens, UniProt P08922, L2026M, cells depend on it, form not given); assay: Ba/F3-Ros1 cell proliferation assay, L2026M gatekeeper mutant; type: cell-based, murine; conditions: without IL-3
Method in brief: as §1

Ros1 enzyme = biological target: T2, Ros1 enzyme (Homo sapiens, UniProt P08922); assay: Ros1 enzymatic assay; type: biochemical; conditions: Ros1 enzymatic assay; read-out: ROS1 pIC50 (converted)
T2 construct: 0.5 μg/ml Ros1 enzyme
Method in brief: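 A radiometric assay mixed enzyme mix (0.5 μg/ml human Ros1) with substrate mix (6 μg/ml biotinylated IRS-Tide, 20 μM ATP plus [33P]ATP), both in 50 mM Tris-HCl pH 7.5, 10 mM MgCl2, 1 mM EGTA, 0.01% Tween-20. The reaction ran 120 min at room temperature, was stopped with EDTA plus streptavidin imaging beads, and was read by LEADseeker imaging.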

[6] = system: Ba/F3 cells containing Ros1 wild-type protein + IL-3; assay: Ba/F3-Ros1 cell proliferation counter-screen, wild-type protein in the presence of 10 ng/ml murine IL-3; type: cell-based; conditions: Mus musculus, BaF3, 24 h, read-out: BaF3-ROS1 + IL3 pIC50 (converted)
Method in brief: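 Ba/F3 cells expressing wild-type Ros1, 20000 per well in RPMI-1640 with 10% FBS, cultured with compounds for 24 h at 37 °C with 10 ng/ml murine IL-3. Alamar Blue (resazurin) then added for 4 h. Fluorescence read at ex 540/em 590 nm.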

[7] = HCC78 cells, 4 hours, Ros pY2274 normalized to total Ros1
[8] = counter-screen, wild-type, 10 ng/ml murine IL-3

Sequence of Ba/F3 cells containing Ros1 with G2032R mutation (P08922 whole entry G2032R, form open): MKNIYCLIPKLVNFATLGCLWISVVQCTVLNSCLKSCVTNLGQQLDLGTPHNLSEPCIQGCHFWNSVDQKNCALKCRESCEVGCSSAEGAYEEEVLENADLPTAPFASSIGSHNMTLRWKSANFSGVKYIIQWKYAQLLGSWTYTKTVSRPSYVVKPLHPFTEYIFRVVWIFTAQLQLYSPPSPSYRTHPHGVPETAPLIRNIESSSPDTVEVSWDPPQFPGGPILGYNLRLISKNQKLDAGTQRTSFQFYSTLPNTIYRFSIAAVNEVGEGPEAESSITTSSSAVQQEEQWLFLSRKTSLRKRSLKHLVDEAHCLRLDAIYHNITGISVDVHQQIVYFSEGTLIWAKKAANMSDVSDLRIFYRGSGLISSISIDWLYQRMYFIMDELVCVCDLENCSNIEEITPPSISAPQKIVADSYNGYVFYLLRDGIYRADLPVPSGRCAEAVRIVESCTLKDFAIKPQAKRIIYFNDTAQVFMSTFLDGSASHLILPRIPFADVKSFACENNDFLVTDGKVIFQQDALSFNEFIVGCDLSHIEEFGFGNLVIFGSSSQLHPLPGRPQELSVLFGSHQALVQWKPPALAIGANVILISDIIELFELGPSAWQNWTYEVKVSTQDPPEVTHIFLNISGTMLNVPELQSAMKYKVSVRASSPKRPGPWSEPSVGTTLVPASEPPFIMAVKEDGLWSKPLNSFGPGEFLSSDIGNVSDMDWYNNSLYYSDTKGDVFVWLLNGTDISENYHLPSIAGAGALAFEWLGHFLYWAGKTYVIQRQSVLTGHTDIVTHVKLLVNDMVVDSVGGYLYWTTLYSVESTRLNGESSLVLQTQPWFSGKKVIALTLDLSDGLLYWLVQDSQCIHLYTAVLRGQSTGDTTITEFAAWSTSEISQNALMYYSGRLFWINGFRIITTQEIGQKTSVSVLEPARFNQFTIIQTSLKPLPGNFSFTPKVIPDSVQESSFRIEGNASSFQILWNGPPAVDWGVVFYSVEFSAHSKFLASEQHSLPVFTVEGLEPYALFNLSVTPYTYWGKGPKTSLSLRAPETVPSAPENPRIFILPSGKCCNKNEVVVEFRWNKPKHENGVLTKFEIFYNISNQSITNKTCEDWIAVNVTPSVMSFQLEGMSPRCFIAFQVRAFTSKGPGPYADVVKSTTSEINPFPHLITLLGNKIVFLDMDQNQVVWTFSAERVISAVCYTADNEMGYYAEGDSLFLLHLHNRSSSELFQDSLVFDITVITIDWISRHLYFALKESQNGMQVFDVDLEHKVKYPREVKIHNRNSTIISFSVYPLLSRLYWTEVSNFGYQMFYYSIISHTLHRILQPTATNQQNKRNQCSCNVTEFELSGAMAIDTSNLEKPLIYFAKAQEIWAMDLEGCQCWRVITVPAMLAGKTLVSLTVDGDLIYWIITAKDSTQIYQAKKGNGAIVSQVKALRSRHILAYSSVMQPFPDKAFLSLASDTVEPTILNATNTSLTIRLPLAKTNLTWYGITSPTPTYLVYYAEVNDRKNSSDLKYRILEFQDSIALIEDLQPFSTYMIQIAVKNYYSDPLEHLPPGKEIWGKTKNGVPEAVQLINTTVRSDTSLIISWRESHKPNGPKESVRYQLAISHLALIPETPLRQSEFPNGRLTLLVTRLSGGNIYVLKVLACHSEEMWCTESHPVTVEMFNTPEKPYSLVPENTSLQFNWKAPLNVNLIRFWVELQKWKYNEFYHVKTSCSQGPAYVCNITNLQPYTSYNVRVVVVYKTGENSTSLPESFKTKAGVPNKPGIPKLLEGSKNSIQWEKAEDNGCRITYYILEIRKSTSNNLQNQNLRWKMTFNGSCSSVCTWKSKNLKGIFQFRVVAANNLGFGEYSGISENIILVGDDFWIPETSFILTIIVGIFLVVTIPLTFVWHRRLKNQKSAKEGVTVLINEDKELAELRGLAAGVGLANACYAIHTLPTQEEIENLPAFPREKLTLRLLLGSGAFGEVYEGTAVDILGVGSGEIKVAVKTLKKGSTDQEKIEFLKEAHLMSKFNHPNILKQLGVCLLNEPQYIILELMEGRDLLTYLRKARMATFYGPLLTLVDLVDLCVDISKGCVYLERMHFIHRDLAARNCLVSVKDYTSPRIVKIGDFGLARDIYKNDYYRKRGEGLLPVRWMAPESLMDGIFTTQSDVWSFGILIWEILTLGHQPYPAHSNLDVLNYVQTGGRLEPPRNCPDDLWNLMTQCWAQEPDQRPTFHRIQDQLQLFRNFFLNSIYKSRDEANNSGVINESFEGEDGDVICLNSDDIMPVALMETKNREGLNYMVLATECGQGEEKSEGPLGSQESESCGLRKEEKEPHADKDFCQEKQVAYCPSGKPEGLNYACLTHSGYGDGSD
Sequence of Ba/F3 cells containing Ros1 with a mutation at the gatekeeper residue (L2026M) (P08922 whole entry L2026M, form open): as the sequence (P08922 whole entry G2032R, form open) above, with L2026M, R2032G counted along it
T1 sequence (P08922 whole entry, stated change not applied): as the sequence (P08922 whole entry G2032R, form open) above, with R2032G counted along it
T2 sequence (P08922 28-2347): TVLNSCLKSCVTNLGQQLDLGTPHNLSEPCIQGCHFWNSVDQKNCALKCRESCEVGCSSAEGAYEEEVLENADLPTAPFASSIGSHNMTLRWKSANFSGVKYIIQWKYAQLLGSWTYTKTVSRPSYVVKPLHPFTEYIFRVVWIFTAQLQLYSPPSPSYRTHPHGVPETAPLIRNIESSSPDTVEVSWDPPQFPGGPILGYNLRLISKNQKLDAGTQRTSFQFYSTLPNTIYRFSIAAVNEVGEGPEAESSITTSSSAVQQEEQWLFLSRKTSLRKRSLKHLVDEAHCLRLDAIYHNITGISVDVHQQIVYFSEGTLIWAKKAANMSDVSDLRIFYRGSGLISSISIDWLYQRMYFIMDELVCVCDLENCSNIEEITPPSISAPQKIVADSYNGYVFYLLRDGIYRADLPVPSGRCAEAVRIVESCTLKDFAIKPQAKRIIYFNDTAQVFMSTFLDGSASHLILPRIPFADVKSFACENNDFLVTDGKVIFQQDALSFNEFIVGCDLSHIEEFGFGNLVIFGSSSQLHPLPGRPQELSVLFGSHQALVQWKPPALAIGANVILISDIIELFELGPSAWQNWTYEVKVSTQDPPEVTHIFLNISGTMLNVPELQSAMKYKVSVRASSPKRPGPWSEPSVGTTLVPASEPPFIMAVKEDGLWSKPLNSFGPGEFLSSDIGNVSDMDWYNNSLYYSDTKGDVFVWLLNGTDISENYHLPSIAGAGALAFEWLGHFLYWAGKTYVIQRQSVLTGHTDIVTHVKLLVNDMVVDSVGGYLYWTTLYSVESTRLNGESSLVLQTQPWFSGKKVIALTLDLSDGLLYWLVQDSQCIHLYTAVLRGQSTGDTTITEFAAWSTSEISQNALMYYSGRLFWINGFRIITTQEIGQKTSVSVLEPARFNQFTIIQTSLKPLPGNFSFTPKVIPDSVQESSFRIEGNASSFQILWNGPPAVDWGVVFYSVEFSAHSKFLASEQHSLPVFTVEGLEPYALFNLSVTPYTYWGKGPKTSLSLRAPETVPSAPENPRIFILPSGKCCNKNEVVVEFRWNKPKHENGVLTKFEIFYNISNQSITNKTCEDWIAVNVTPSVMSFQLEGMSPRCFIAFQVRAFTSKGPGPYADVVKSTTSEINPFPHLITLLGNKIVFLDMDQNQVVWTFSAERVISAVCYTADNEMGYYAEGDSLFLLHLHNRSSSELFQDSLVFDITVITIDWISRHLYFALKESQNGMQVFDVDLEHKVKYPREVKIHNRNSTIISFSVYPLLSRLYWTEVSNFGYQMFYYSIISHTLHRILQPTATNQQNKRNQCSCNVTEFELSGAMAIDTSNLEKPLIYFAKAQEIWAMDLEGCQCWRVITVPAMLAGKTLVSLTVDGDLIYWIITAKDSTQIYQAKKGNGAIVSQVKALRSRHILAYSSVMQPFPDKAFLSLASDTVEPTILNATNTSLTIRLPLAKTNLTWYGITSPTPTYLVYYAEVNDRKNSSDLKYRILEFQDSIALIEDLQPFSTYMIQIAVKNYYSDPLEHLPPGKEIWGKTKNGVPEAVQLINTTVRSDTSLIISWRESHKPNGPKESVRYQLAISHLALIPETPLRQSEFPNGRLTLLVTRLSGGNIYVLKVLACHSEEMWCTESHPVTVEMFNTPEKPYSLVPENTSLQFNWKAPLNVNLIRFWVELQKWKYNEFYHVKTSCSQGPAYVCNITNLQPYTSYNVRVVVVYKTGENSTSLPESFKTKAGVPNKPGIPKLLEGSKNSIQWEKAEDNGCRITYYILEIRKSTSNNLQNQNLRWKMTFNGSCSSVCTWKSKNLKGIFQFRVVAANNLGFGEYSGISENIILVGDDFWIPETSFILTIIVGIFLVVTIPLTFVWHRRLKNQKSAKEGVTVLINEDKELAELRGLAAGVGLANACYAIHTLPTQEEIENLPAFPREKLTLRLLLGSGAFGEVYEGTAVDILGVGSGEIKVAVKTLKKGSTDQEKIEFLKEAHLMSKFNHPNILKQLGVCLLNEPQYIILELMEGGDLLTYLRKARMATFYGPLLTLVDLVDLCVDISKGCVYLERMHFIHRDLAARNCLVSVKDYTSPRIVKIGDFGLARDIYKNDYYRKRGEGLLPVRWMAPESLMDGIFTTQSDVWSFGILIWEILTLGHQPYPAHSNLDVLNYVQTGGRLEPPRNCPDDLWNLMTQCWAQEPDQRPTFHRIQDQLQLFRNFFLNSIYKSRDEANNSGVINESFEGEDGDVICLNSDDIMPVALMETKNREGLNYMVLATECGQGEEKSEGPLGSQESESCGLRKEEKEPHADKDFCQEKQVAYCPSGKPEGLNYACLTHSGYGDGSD

| Compound | Ba/3 Ros1 G2032R (-IL-3) pIC50 [1] | EC50 [2] [nM] | BaF3-ROS1-IL3 pIC50 [3] | IC50 ([4]; HCC78, 4 h) [nM] | Ba/F3 Ros1 L2026M (-IL-3) pIC50 [5] | melting point [°C] | IC50 (Ros1 enzyme) [nM] | CC50 [6] [nM] | EC50 ([2]; HCC78 cells, 4 days, MTT) [nM] | IC50 [4, 7] [nM] | CC50 [6, 8] [nM] |
| --- | --- | --- | --- | --- | --- | --- | --- | --- | --- | --- | --- |
| CC(C)c1ccc(COc2ccc(-c3c(-c4ccncc4)nn4c3C(=O)NCC4)c(F)c2)cc1 [Compound 6] | 7.4 | 63.1 | 7.9 | 15.8 | 7.7 | 271 | 10 | > 10000 | – | – | – |
| CC(C)c1ccc(COc2ccc(-c3c(-c4ccnc(N)c4)nn4c3C(=O)NCC4)cc2)cc1 [Compound 7] | 6.8 | 251 | 7.4 | 100 | 7.4 | 267 | 39.8 | > 10000 | – | – | – |
| CC(C)(C#N)c1ccc(COc2ccc(-c3c(-c4ccncc4)nn4c3C(=O)NCC4)cc2)cc1 [Compound 10] | 6.6 | 158 | 7.1 | 25.1 | 6.9 | 280 | 79.4 | > 10000 | – | – | – |
| COc1cc(-c2c(-c3ccncc3)nn3c2C(=O)NCC3)ccc1OCc1ccc(C(C)C)cc1 [Compound 32] | 7.3 | 50.1 | 8.0 | 15.8 | 8.0 | 187 | 6.31 | > 10000 | – | – | – |
| CC(C)c1ccc(COc2ccc(-c3c(-c4ccncc4)nn4c3C(=O)N(C(C)C)CC4)cc2)cc1 [Compound 49] | 6.9 | 100 | 7.3 | 31.6 | 7.2 | 168 | 39.8 | > 10000 | – | – | – |
| CC(C)c1ccc(COc2ccc(-c3c(-c4ccncc4)nn4c3C(=O)N(CC3(C)COC3)CC4)cc2)cc1 [Compound 54] | 6.6 | 79.4 | 7.3 | 20 | 7.2 | 204 | 79.4 | > 10000 | – | – | – |
| CC(C)c1ccc(COc2ccc(-c3c(-c4ccncc4)nn4c3C(=O)NCC4)cn2)cc1 [Compound 71] | 7.0 | 100 | 7.7 | 39.8 | 7.6 | 199 | 25.1 | > 10000 | – | – | – |
| O=C1NCCn2nc(-c3ccncc3)c(-c3ccc(OCc4ccc(OC(F)(F)F)cc4)cc3)c21 [Compound 116] | 6.6 | 251 | 7.3 | 158 | 7.3 | 260 | 126 | > 10000 | – | – | – |
| CN1CCn2nc(-c3ccncc3)c(-c3ccc(OCc4ccc(C5CC5)nc4)cc3)c2C1=O [Compound 138] | 6.0 | – | 6.9 | – | 6.8 | 175 | 100 | – | 501 | 316 | > 10000 |
| CNC(=O)CN1CCn2nc(-c3ccncc3)c(-c3ccc(OCc4ccc(C(C)C)cc4)cc3)c2C1 [Compound 174] | 6.4 | – | 6.8 | – | 6.8 | 185 | 200 | – | 794 | 251 | > 10000 |

Source: patent publication US10280170B2, “Substituted 4,5,6,7-tetrahydro-pyrazolo[1,5-a]pyrazine derivatives and 5,6,7,8-tetrahydro-4H-pyrazolo[1,5-a][1,4]diazepine derivatives as Ros1 inhibitors” (Janssen Pharmaceutica NV, priority 2014, dated 2019)
